“And” between values parts separate entries of the source, which are not always exact repeats. Equal entries are not always repeated. Where two headings read alike, the source gives them in different places.

The values below come from patent US6756210B2, “Linoleic acid diol and glucuronide conjugate levels as diagnostic markers of disorders of abnormal regulation of cytochrome P450 metabolism of unsaturated fatty acids” (The Regents of the University of California, priority 2001, dated 2004).

In one data set the test system is WKY rats. Put plainly: Systolic blood pressure in WKY rats (tail cuff). Type of data set: in vivo, rat. Particulars: single 3 mg/kg dose. From the text:
(§1) Animals. Male SHR and WKY rats 3-13 wks of age were purchased from Charles River Laboratories (Wilmington, Mass.) and housed in a controlled environment with 12 hr light/dark cycles and fed standard laboratory chow for 3 days before euthanasia. All animal use was approved by the University of California San Francisco Committee on Animal Research and followed the National Institutes of Health guidenlines for the care and use of laboratory animals. For isolation of kidney subcellular fractions, rats were anesthetized with methoxyflurane, the abdominal cavities were opened, and the kidneys were perfused with ice-cold saline. Perfused kidneys were rapidly removed, the cortex and medulla dissected out and immersed in liquid nitrogen. All tissue was stored at −80° C. until preparation of microsomes. In some cases WKY and SHR rats were housed in metabolic cages for up to three days and urine was collected over triphenylphosphine in 24 hr intervals. The urine volume was noted and aliquots were stored at −80° C. prior to extraction and quantitation of DHETs and EETs. […] Systolic blood pressure was measured at room temperature by a photoelectric tail cuff system (Model 179, IITC, Inc., Woodland Hills, Calif.) for up to four days following the dose of inhibitor. Blood pressures are reported as the average of three separate readings over a 30 min period. […]

A further data set concerns the target T1, mEH (Rattus norvegicus, UniProt P07687).
T1 sequence (P07687 1-455): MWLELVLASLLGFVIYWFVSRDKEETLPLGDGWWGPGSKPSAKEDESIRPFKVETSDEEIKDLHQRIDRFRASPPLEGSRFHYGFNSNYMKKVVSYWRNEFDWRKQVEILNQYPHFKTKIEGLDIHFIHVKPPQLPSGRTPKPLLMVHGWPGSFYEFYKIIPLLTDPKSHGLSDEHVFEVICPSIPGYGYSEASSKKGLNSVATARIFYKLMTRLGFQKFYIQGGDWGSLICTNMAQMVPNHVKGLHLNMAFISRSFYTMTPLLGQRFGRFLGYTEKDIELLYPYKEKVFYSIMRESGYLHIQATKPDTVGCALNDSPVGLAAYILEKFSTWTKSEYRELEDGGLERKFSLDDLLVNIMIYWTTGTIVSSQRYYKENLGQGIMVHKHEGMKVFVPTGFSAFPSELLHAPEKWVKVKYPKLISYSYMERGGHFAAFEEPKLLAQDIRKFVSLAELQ
The following applies: previous studies, Morisseau 1999; cited from earlier work.

For data set [1], the system named is CYP epoxygenase or -hydroxylase. Put plainly: Renal microsomal arachidonic acid metabolism (CYP epoxygenase, hydroxylase). Type of data set: biochemical, rat. Also on record: dose or concentration left out as unconfirmed. How it is done: Renal microsomal arachidonic acid metabolism. Microsomes, cytosol, and S9 fractions were prepared from the renal cortex or outer medulla samples from a single animal as described previously (Kroetz, D. L. et al. Mol Pharmacol 52, 362-372 (1997), Su, P. et al. Am J Physiol 275, R426-438 (1998)). Reaction conditions for the in vitro determination of arachidonic acid epoxygenase activity, metabolite extraction and HPLC analysis were described in detail elsewhere (Su, P. et al. Am J Physiol 275, R426-438 (1998)).

Another data set concerns SHR. Put plainly: Systolic blood pressure in SHR (tail cuff). Type of data set: in vivo, rat. The following applies: 6 hr after single dose (3 mg/kg DCU or equimolar).
Excerpt: as §1

The next data set has as its target T2, recombinant rat mEH (Rattus norvegicus, UniProt P07687).
T2 sequence (P07687 1-455): T1 sequence (P07687 1-455)
Put plainly: Inhibition of recombinant rat mEH. Type of data set: biochemical. How it is done: (§2) The micosomal enzyme plays a significant role in the metabolism of xenobiotics such as polyaromatic toxicants. Additionally, polymorphism studies have underlined a potential role of this enzyme in relation to several diseases, such as emphysema, spontaneous abortion and several forms of cancer. Inhibition of recombinant rat and human mEH can be obtained using primary ureas, amides, and amines. For example, elaidamide, has a K1 of 70 nM for recombinant rat mEH.

In data set [2] the test system is insect cell culture expressing rat mEH. Put plainly: Insect cell culture expressing rat mEH, toxicity of epoxide-containing xenobiotics. Type of data set: cell-based. On the procedure:
as §2

In data set [3] the target is T3, recombinant mouse sEH (MsEH) (Mus musculus, UniProt P34914).
T3 sequence (P34914 1-554): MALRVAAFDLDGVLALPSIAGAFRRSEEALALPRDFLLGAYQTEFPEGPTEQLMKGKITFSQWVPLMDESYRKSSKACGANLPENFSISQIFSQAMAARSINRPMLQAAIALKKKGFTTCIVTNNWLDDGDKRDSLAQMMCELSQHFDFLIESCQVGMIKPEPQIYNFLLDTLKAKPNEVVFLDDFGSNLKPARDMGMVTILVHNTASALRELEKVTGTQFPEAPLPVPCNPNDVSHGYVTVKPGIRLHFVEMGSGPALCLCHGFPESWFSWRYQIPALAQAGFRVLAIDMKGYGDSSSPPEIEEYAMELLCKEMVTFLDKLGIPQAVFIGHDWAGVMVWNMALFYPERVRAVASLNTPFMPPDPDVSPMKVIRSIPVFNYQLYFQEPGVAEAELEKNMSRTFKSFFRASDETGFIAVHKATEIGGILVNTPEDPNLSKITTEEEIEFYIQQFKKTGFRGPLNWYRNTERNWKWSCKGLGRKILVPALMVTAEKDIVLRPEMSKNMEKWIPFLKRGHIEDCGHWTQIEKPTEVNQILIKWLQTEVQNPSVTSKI
Put plainly: Inhibition of recombinant mouse sEH (MsEH). Type of data set: biochemical. The following applies: MsEH 0.13 μM, read-out: Mouse sEH IC50.

In the next data set the target is T4, Human sEH (HsEH) (Homo sapiens, UniProt P34913).
T4 sequence (P34913 1-555): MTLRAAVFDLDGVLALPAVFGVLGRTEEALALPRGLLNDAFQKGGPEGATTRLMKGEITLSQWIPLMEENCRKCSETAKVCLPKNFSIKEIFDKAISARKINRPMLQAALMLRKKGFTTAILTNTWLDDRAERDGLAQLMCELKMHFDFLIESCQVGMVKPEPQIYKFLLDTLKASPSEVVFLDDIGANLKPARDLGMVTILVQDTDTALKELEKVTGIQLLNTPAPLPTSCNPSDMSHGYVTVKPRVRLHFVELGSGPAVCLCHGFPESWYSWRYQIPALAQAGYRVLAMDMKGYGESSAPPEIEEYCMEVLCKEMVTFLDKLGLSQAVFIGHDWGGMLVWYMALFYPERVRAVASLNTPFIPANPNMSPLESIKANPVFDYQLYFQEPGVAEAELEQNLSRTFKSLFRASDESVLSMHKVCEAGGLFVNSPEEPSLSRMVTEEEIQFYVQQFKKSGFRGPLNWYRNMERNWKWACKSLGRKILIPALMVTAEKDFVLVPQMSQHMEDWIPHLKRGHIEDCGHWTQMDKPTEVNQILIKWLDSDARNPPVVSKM
Put plainly: Inhibition of recombinant human sEH (HsEH). Particulars: HsEH 0.26 μM. Type of data set: biochemical.

For `O=C(NC1CCCCC1)NC1CCCCC1` [DCU, N,N′-dicyclohexylurea], the “effect on blood pressure in WKY” value in the data set with WKY rats is “unaffected”. Besides, the “inhibition of mEH” value at mEH is on record as “does not inhibit mEH”. Besides, the “effect on CYP epoxygenase or -hydroxylase activity” value in data set [1] is reported as “no effect”.
In the case of `CCCCCCCCCCCCNC(=O)NC1CCCCC1` [N-cyclohexyl-N′-dodecylurea], the “decrease in systolic blood pressure” value with SHR is 12±2 mm Hg and 12 mm Hg.
For the compound `CCCCCCCC/C=C/CCCCCCCC(N)=O` [elaidamide], the “inhibition kinetics with mEH” value at recombinant rat mEH (non-covalent complex) was “apparent mix of competitive and non-competitive inhibition kinetics”. The Ki at recombinant rat mEH (read-out: K1 for recombinant rat mEH) stood at 70 nM. For the same compound, the “effect on toxicity of epoxide-containing xenobiotics” value in data set [2] is reported as “enhances the toxicity effects”.
Turning to `CCCCCCCCCNC(=O)NC1CCCCC1` [compound 473], the IC50 in data set [3] (Table 1) was 50 ± 10 nM; on Human sEH (HsEH) (Table 1), 100 ± 10 nM.
Turning to `COC(c1ccccc1)C1OC1c1ccccc1` (racemic) [R=C6H5, R′=C6H5, X—Y=CH—OCH3, ±], the half-maximal inhibitory concentration (IC50) in data set [3] (Table 2) amounted to 103000 ± 5000 nM; at Human sEH (HsEH) (Table 2) it was 34000 ± 1000 nM.
On to `CC(=O)c1ccc(NC(=O)NC2CCCCC2)cc1` [compound 126], for which the figures for the half-inhibitory concentration (IC50) (in data set [3] (Table 1); on Human sEH (HsEH) (Table 1)) were 60 ± 10 nM and 270 ± 20 nM, respectively.
For `O=C(NC1CCCCC1)NC1C2CC3CC(C2)CC1C3` (stereo not drawn) [compound 427], in that order: 50 ± 10 nM and 100 ± 10 nM.
For `CCCCCCc1ccc(NC(=O)NC2CCCCC2)cc1` [compound 501], in that order: 50 ± 10 nM and 160 ± 10 nM.
For the compound `O=C(c1ccccc1)C1OC1c1ccccc1` (racemic) [R=C6H5, R′=C6H5, X—Y=C═O, ±], the IC50 came out at 2900 ± 300 nM in data set [3] (Table 2) and 300 ± 100 nM at Human sEH (HsEH) (Table 2).
For `CC(=O)C1OC1c1ccc([N+](=O)[O-])cc1` (racemic) [R=4-NO2—C6H4, R′=CH3, X—Y=C═O, ±], in that order: 163000 ± 11000 nM and 269000 ± 5000 nM.
As for `O=C(NC1CCCCC1)NC1CCCc2ccccc21` (stereo not drawn) [compound 434], the 50% inhibitory concentration (IC50) in data set [3] (Table 1) stood at 50 ± 10 nM; on Human sEH (HsEH) (Table 1), 100 ± 10 nM.
The like results for `N#Cc1ccc(NC(=O)NC2CCCCC2)cc1` [compound 118] were, in that order, 60 ± 10 nM and 100 ± 10 nM.
The like results for `O=C(NC1CCCCC1)OCc1ccc(-c2ccccc2)cc1` [compound 259] were, in that order, 450 ± 90 nM and 100 ± 20 nM.
For the compound `ON=C(c1ccccc1)C1OC1c1ccc(-c2ccccc2)cc1` (racemic) [R=4-C6H5—C6H4, R′=C6H5, X—Y=C═NOH, ±], the IC50 was 42000 ± 3000 nM in data set [3] (Table 2) and 35000 ± 1000 nM at Human sEH (HsEH) (Table 2).
`CC(C)(C)c1ccc(NC(=O)NC2CCCCC2)cc1` [compound 75]: the IC50 in data set [3] (Table 1) was found to be 60 ± 10 nM; at Human sEH (HsEH) (Table 1) it was 230 ± 10 nM.
For `CC1CCCCC1NC(=O)NC1CCCCC1` (stereo not drawn) [compound 551], in that order: 50 ± 10 nM and 100 ± 10 nM.

The term IC50 denotes the midpoint of a concentration-inhibition curve.
